These results are taken from article PMC9260667, “Thioredoxin Reductase Inhibitors as Potential Antitumors: Mercury Compounds Efficacy in Glioma Cells” (Frontiers in Molecular Biosciences, 2022).

Where two headings read alike, the source gives them in different places.

In data set [1] the test system is GL261 cells. The data set is described as follows: cells. Format: cell-based, mouse. The conditions noted are these: for IC50: Mus musculus, read-out: IC50 (MTT assay). The protocol: The effect of TmHg and EtHg on the viability of GL261 and N9 cells was evaluated by the MTT assay as previously described ([Branco et al., 2014]). Briefly, cells (5 × 10^3) were seeded in 96-well plates (Nunc®) and incubated at 37°C for 24 h to allow proper adherence to plates. Afterwards, TmHg and EtHg (0, 0.5, 1, 2.5, and 5 μM) were added to wells. The same procedure was carried out to evaluate the effect of TMZ on the cellular viability of GL261 and DMSO at a final concentration of 0.1% was added as a control group. For co-exposure, the addition of the mercury compounds (EtHg—1 and 2 μM; TmHg—1 and 2 µM) under study followed the addition of TMZ (200 µM).
Cell viability was determined at the time of addition of the compounds (0 h) and after 24, 48, and 72 h of exposure by adding MTT to a final concentration of 400 μg/ml per well and incubating at 37°C for 4 h. After incubation, the medium was removed, and the formazan crystals were dissolved in a 4:1 DMSO/glycine buffer (pH 10.5). After shaking for 15 min, the viability was evaluated through the measurement of formazan absorption at 550 nm on a microplate reader (Zenyth 3100, Anthos Labtec Instruments) ([Branco et al., 2014]).
The IC50 is the concentration of a compound that decreases MTT reduction by 50% relative to the non-treated control at each time point.
Background: Tetrazolium dyes change colour on reduction, which living cells bring about.

Data set [2] has as its system GL261 cells. In words: cells. It counts as cell-based, mouse. The protocol: Cells were seeded in 96-well plates for 24 h prior to the addition of TmHg, EtHg (1 µM), TMZ (200, 400, and 800 µM), and for the 48 h end point the co-exposure of TMZ 200 µM with 1 µM EtHg and 1 µM TmHg. After exposure for 24 and 48 h, the supernatant was transferred to a fresh plate and a lysis buffer (10×) (Thermo Scientific™ Pierce™) was added to wells containing cells and incubated at 37°C for 45 min. LDH activity was evaluated using LDH Cytotoxicity Assay Kit from Thermo Scientific™ Pierce™ in the supernatant and lysate by the addition of lactate (substrate), a tetrazolium salt, and NAD^+ (cofactor) (Reaction Mixture), according to the manufacturer’s instructions. Following 30 min of incubation in the dark at room temperature, LDH release was assessed by measuring the absorbance at 490 and 680 nm in a microplate reader (Omega BMG LABTECH). The release of LDH was quantified as the ratio between the amount in the supernatant and total LDH (supernatant + lysate) ([Branco et al., 2017]).

Details of data set [3]: method as in JECFA 2004, WHO Technical Report Series 922. The conditions noted are these: ref JECFA 2004, WHO Technical Report Series 922; cited from earlier work.

Regarding `Cn1nnc2c(C(N)=O)ncn2c1=O` [TMZ, temozolomide], in the data set on GL261 cells [1] (GL261, 24 h exposure, maximal effect), the “reduction of viability (MTT)” value was at most 40%. In addition, the IC50 in the data set on GL261 cells [1] (GL261, 48 h exposure) turned out to be 444 ± 60 µM; in the data set with GL261 cells [1] (GL261, 72 h exposure), 276 ± 7 µM. For the same compound, the “change of LDH levels” value with GL261 cells [2] (GL261, 200 µM TMZ alone) is reported as “did not change the levels of LDH”. In addition, the EC50 in the data set on GL261 cells [2] (Mus musculus, GL261, 48 h exposure, read-out: EC50 (LDH assay)) was above 800 µM.

Regarding `[CH3][Hg][Cl]` [methylmercury], the “safe concentration of intake without appearance of neurological disorders” value in data set [3] is listed as 1.6 µg/Kg b.w./week.

Usually IC50 stands for the concentration that gives 50% inhibition. For orientation: EC50 means the midpoint of the concentration-response curve.
